Laboratory results published in PubChem BioAssay AID2305 (GlaxoSmithKline (GSK), 2010).

System: P. falciparum 3D7 growth, pLDH absorbance
Test: blood-stage malaria parasite growth potency – strain 3D7, dose response (AID 2305)

Row | SMILES | IC50 [nM]
1 | NC(N)=NCC=C(c1ccccc1)c1ccccc1 | 990
2 | CCCCCCn1ccc2c3c(N)nc(N)nc3ccc21 | 150
3 | COc1ccc(CCN(C)CCOc2ccc(NC(=O)c3cc(SC)cc4c(=O)c5ccccc5[nH]c34)cc2)cc1OC | 1400
4 | Cc1cc(C)c2oc(-c3cccc(NC(=O)c4ccc([N+](=O)[O-])o4)c3C)nc2c1 | 1150
5 | CCCN(CCC)S(=O)(=O)c1ccc(C(=O)Nc2nc3ccc(-c4cc(=O)[nH]c(Nc5ccccc5Cl)n4)cc3[nH]2)cc1 | 590
6 | O=C(C1CCCCC1)N1CCOC(CCN2CCC(c3ccccc3)CC2)(c2ccc(Cl)c(Cl)c2)C1 (centres undefined) | 930
7 | CC(C)c1ccc(CN(C)CCCCNC(=O)c2ccc(NC(=O)c3ccc(Cl)cc3)cc2)cc1 | 990
8 | CCOC(=O)CC[C@H](NC(=O)c1ccc(NS(=O)(=O)c2ccc(-c3cnc(N)[nH]c3=O)cc2)cc1)C(=O)OCC | 170
9 | CC(=O)N1N=C(c2ccc(F)cc2)Sc2c1nc(-c1ccccc1)n2C(C)=O | 650
10 | Nc1ccc2nc(C=Cc3ccc(Cl)cc3)[nH]c2c1 | 940
11 | CC(C)(Cc1ccc(Cl)cc1)NCCCCCCNCCc1ccc(O)c(O)c1 | 1200
12 | CCc1ccc(CN(Cc2ccc(C)cc2)Cc2ccc(NC(C)=O)cc2)cc1 | 960
13 | O=C(NCCCc1ccccc1)c1ccc(O)c(-c2cc(Cl)cc(Cl)c2)c1 | 570
14 | CC(C)N=C(N)NN=Cc1ccc(Cl)c(Cl)c1 | 530
15 | COc1cc(/C=C/C(=O)NC2CCC(N3CCC(c4ccccc4C)CC3)CC2)cc(OC)c1 (centres undefined) | 980
16 | Oc1ccc(CCNCCCCCCNCCc2ccc(Cl)c3ccccc23)cc1O | 720
17 | CCCCCCN1CCN(Cc2cccc(NC(=O)c3cc4ccccc4o3)c2)CC1 | 910
18 | COc1ccc(-c2nc(NC(=O)Cc3ccc(OC)c(OC)c3)sc2C)cc1 | 1160
19 | Cc1ccc(N2C(=O)C3C(C2=O)[C@]2(c4ccccc4)C(=O)[C@@]3(c3ccccc3)C(c3ccccc3)=C2c2ccccc2)cc1 (some centres undefined) | 870
20 | Cc1cc2nc(-c3ccc(OCC(=O)NCc4ccc(C(C)(C)C)cc4)cc3)[nH]c2cc1C | 1060
21 | CN1CCCC(CN2CCN(Cc3ccc(-c4ccc(-c5nc6ccccc6[nH]5)s4)cc3)CC2)C1 (centres undefined) | 130
22 | CCC(C)(C)c1ccc(Oc2ccc(NC(=O)Nc3ccc(Cl)c(Cl)c3)cc2)cc1 | 700
23 | CC(=O)Nc1csc(-c2cnc(/C=C(\C)C[C@@H]3OC[C@H](C[C@@H]4O[C@H]4[C@@H](C)[C@H](C)O)[C@@H](O)[C@H]3O)o2)c1 | 180
24 | NC1=NC2(CCCC2)C(c2ccc(Cl)c(Cl)c2)C(N)=N1 (centres undefined) | 990
25 | COc1c(CN2CCCC2)cccc1-c1cc2c(-c3ccc(C(=O)O)c(C(C)C)c3)ccnc2[nH]1 | 440

Row | SMILES | IC50 [nM]
26 | COc1ccc(C=Cc2cc(N)c3ccccc3n2)cc1 | 970
27 | N=c1n(Cc2ccc(Cl)cc2)c2ccccc2n1CC(O)c1ccc(Cl)c(Cl)c1 (centres undefined) | 680
28 | COc1ccc(NC(=O)c2ccc(-c3cc(NC(=O)c4ccnc(N5CCCC5)c4)ccc3C)s2)cc1N1CCN(C)CC1 | 250
29 | Clc1ccc(CNc2nc(NCCc3cnc[nH]3)nc(N3CCCC4CCCCC43)n2)cc1 (centres undefined) | 590
30 | Cc1cc(C(F)(F)F)cc(-n2ncc(-c3ccc(C(=O)NCc4ccccc4N)cc3)c2N)n1 | 450
31 | CC(C)/C(=C(/F)CN1C(=O)C(NC(=O)c2cc3ccccc3[nH]2)C(=O)N(c2ccccc2)c2ccccc21)c1ccccc1 (centres undefined) | 700
32 | CC(=O)Oc1c(C2CCN(CCCCNC(=O)c3ccc(NC(=O)c4ccc(Cl)cc4)cc3)CC2)ccc2c1CCCC2 | 760
33 | CNc1c2c(nc3ccc(NC(=O)CCCCCCc4ccccc4)cc13)CCCC2 | 920
34 | Cn1nc(-c2ccc(CNC3CCc4ccccc43)cc2)c2cnc(NCCN3CCCC3)nc21 (centres undefined) | 1350
35 | CN1CCC(N2CCN(Cc3cccc(-c4cccc(-c5nc6ccccc6[nH]5)c4)c3)CC2)CC1 | 190
36 | Cc1cc(F)ccc1C1CCN(CCCCNC(=O)c2ccc(NC(=O)c3ccc(Cl)cc3)cc2)CC1 | 690
37 | O=C1CCCN1CCCNCc1ccc(-c2ccc(-c3nc4ccc(C(F)(F)F)cc4[nH]3)cc2)cc1 | 580
38 | CCC[C@@H]([C@@H](CC1CCCCC1)C(=O)NC(C(=O)Nc1nccs1)C(CC)c1ccccc1)N(O)C=O (some centres undefined) | 690
39 | O=C(Nc1ccc(S(=O)(=O)N2CCOCC2)cc1)c1cc(-c2cc(Cl)ccc2O)n[nH]1 | 770
40 | O=C(NCc1cccc(C(F)(F)F)c1)c1ccc(-c2nc3cc(F)c(F)cc3[nH]2)cc1 | 780
41 | CCc1[nH]nc(C(=O)Nc2cccc(N3CCCC3)c2)c1C | 1460
42 | COc1cccc(O)c1CNCC(O)c1cccc(C(F)(F)F)c1 (centres undefined) | 950
43 | COc1cc(C2=NN(S(=O)(=O)c3c(C)cc(C)cc3C)CCCC2)ccc1Cl | 780
44 | Cc1ccc(CON2C(N)=NC(N)=NC23CCCCC3)c2ccccc12 | 70
45 | O=C(Cc1cnc[nH]1)Nc1ccc(-c2ccc(-c3nc4ccc(F)cc4[nH]3)cc2)cc1 | 730
46 | Clc1ccc(Cn2nc(Br)nc2Br)c(Cl)c1 | 440
47 | Nc1ncc(-c2ccsc2)c2ccc(-c3cc(NCc4ccccc4)ncn3)cc12 | 860
48 | COc1ccc(CNC(=O)Nc2cc3cc(-c4ccc(CN5CCCC5)cc4)ccc3n3c(C)nnc23)cc1 | 650
49 | CC(C)Cn1cc(C2CCN(CCN3CCC(CNC(=O)c4ccc(NC(=O)c5ccc(Cl)cc5)cc4)CC3)CC2)c2ccccc21 | 250
